Laboratory results: patent publication US8232407B2, “Nitrogenous heterocyclic compounds with insecticidal activity, and the preparation and use thereof” (East China University of Science and Technology, priority 2008, dated 2012)

Columns and labels:
Type in all cases: in vivo
Details in all cases: in vivo
[1] = tested on: Aphis craccivoral; test: Insecticidal activities to aphids, immersion method
In short: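 Immersion assay: compound diluted from 10 g/L DMF stock to 500 ppm in 0.2 mL/L Triton X-100, sprout-feeding wingless adults dipped 5 s. Kept at 23° C, three repeats; 24 h mortality calculated relative to surviving Triton-treated controls.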

[2] = tested on: Nilaparvata lugens; test: Insecticidal activities to plant hopper, spraying method
In short: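 Spray test: acetone solutions of 500 down to 0.79 ppm, 2 ml per tumbler holding 10 planthoppers introduced 6 h earlier, triplicate, aqueous acetone as control. Mortality at 24 h calculated from survivors relative to control.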

[3] = tested on: Plutella xylostella; test: Insecticidal activities to diamondback moth, feeding dipped leaves
In short: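 Mortality was scored 24 h after larvae of Plutella xylostella (10 per treatment, 3 repeats) fed on cabbage leaves immersed 3 s in test solution and dried at room temperature. It was computed relative to survivors in a water-treated control.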

[4] = tested on: Pseudaletia separate Walker; test: Insecticidal activities to armyworm, leaf dipping and feeding
In short: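 Armyworms (10 per tumbler, 3 replicates) ate fresh maize leaves that had been immersed for 3 seconds in compound solutions of 1.57-500 ppm in acetone, or in aqueous acetone for controls. Kills were scored at 24 h, and mortality was calculated relative to survivors in the control group.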

C[N+]1=C(C(=Cc2cccs2)[N+](=O)[O-])N(Cc2cnc(Cl)s2)CC1.[Cl-] [Compound 280]
100%: Aphis craccivoral Mortality (%) 500 ppm [1] | Nilaparvata lugens Mortality (%) 500 ppm [2] | Plutella xylostella Mortality (%) 500 ppm [3] | Pseudaletia separate Walker Mortality (%) 500 ppm [4]

C[N+]1=C(C(=Cc2ccsc2)[N+](=O)[O-])N(Cc2cnc(Cl)s2)CC1.[Cl-] [Compound 281]
100%: Aphis craccivoral Mortality (%) 500 ppm [1] | Nilaparvata lugens Mortality (%) 500 ppm [2] | Plutella xylostella Mortality (%) 500 ppm [3] | Pseudaletia separate Walker Mortality (%) 500 ppm [4]

C[N+]1=C(C(=Cc2ccc([N+](=O)[O-])s2)[N+](=O)[O-])N(Cc2cnc(Cl)s2)CC1.[Cl-] [Compound 282]
100%: Aphis craccivoral Mortality (%) 500 ppm [1] | Nilaparvata lugens Mortality (%) 500 ppm [2] | Plutella xylostella Mortality (%) 500 ppm [3] | Pseudaletia separate Walker Mortality (%) 500 ppm [4]

C[N+]1=C(C(=Cc2ccc(Cl)s2)[N+](=O)[O-])N(Cc2cnc(Cl)s2)CC1.[Cl-] [Compound 283]
100%: Aphis craccivoral Mortality (%) 500 ppm [1] | Nilaparvata lugens Mortality (%) 500 ppm [2] | Plutella xylostella Mortality (%) 500 ppm [3] | Pseudaletia separate Walker Mortality (%) 500 ppm [4]

C[N+]1=C(/C(=C\c2ccc[nH]2)[N+](=O)[O-])N(Cc2cnc(Cl)s2)CC1.[Cl-] [Compound 284]
100%: Aphis craccivoral Mortality (%) 500 ppm [1] | Nilaparvata lugens Mortality (%) 500 ppm [2] | Plutella xylostella Mortality (%) 500 ppm [3] | Pseudaletia separate Walker Mortality (%) 500 ppm [4]

CC[N+]1=C(C(=Cc2ccco2)[N+](=O)[O-])N(Cc2ccc(Cl)nc2)CC1.[Cl-] [Compound 285]
100%: Aphis craccivoral Mortality (%) 500 ppm [1] | Nilaparvata lugens Mortality (%) 500 ppm [2] | Plutella xylostella Mortality (%) 500 ppm [3] | Pseudaletia separate Walker Mortality (%) 500 ppm [4]

CC[N+]1=C(C(=Cc2ccoc2)[N+](=O)[O-])N(Cc2ccc(Cl)nc2)CC1.[Cl-] [Compound 286]
100%: Aphis craccivoral Mortality (%) 500 ppm [1] | Nilaparvata lugens Mortality (%) 500 ppm [2] | Plutella xylostella Mortality (%) 500 ppm [3] | Pseudaletia separate Walker Mortality (%) 500 ppm [4]

CC[N+]1=C(C(=Cc2ccc([N+](=O)[O-])o2)[N+](=O)[O-])N(Cc2ccc(Cl)nc2)CC1.[Cl-] [Compound 287]
100%: Aphis craccivoral Mortality (%) 500 ppm [1] | Nilaparvata lugens Mortality (%) 500 ppm [2] | Plutella xylostella Mortality (%) 500 ppm [3] | Pseudaletia separate Walker Mortality (%) 500 ppm [4]

CC[N+]1=C(C(=Cc2ccc(Cl)o2)[N+](=O)[O-])N(Cc2ccc(Cl)nc2)CC1.[Cl-] [Compound 288]
100%: Aphis craccivoral Mortality (%) 500 ppm [1] | Nilaparvata lugens Mortality (%) 500 ppm [2] | Plutella xylostella Mortality (%) 500 ppm [3] | Pseudaletia separate Walker Mortality (%) 500 ppm [4]

CC[N+]1=C(C(=Cc2ccc(Br)o2)[N+](=O)[O-])N(Cc2ccc(Cl)nc2)CC1.[Cl-] [Compound 289]
100%: Aphis craccivoral Mortality (%) 500 ppm [1] | Nilaparvata lugens Mortality (%) 500 ppm [2] | Plutella xylostella Mortality (%) 500 ppm [3] | Pseudaletia separate Walker Mortality (%) 500 ppm [4]

CC[N+]1=C(C(=Cc2cccs2)[N+](=O)[O-])N(Cc2ccc(Cl)nc2)CC1.[Cl-] [Compound 291]
100%: Aphis craccivoral Mortality (%) 500 ppm [1] | Nilaparvata lugens Mortality (%) 500 ppm [2] | Plutella xylostella Mortality (%) 500 ppm [3] | Pseudaletia separate Walker Mortality (%) 500 ppm [4]

CC[N+]1=C(C(=Cc2ccsc2)[N+](=O)[O-])N(Cc2ccc(Cl)nc2)CC1.[Cl-] [Compound 292]
100%: Aphis craccivoral Mortality (%) 500 ppm [1] | Nilaparvata lugens Mortality (%) 500 ppm [2] | Plutella xylostella Mortality (%) 500 ppm [3] | Pseudaletia separate Walker Mortality (%) 500 ppm [4]

CC[N+]1=C(C(=Cc2ccc([N+](=O)[O-])s2)[N+](=O)[O-])N(Cc2ccc(Cl)nc2)CC1.[Cl-] [Compound 293]
100%: Aphis craccivoral Mortality (%) 500 ppm [1] | Nilaparvata lugens Mortality (%) 500 ppm [2] | Plutella xylostella Mortality (%) 500 ppm [3] | Pseudaletia separate Walker Mortality (%) 500 ppm [4]

CC[N+]1=C(C(=Cc2ccc(Cl)s2)[N+](=O)[O-])N(Cc2ccc(Cl)nc2)CC1.[Cl-] [Compound 294]
100%: Aphis craccivoral Mortality (%) 500 ppm [1] | Nilaparvata lugens Mortality (%) 500 ppm [2] | Plutella xylostella Mortality (%) 500 ppm [3] | Pseudaletia separate Walker Mortality (%) 500 ppm [4]

CC[N+]1=C(/C(=C\c2ccc[nH]2)[N+](=O)[O-])N(Cc2ccc(Cl)nc2)CC1.[Cl-] [Compound 295]
100%: Aphis craccivoral Mortality (%) 500 ppm [1] | Nilaparvata lugens Mortality (%) 500 ppm [2] | Plutella xylostella Mortality (%) 500 ppm [3] | Pseudaletia separate Walker Mortality (%) 500 ppm [4]
